Patent publication US5342840A, “Cyclopropane derivative” (Ajinomoto Co., Inc., priority 1991, dated 1994)
In brackets after ≈: the same amount, converted by molar mass.

Columns and labels:
HSV-2 (strain 186) = experiment: Anti-herpes activity, plaque-reduction assay in Vero cells, HSV-2 (strain 186); type: cell-based; conditions: Human alphaherpesvirus 2, 168 h; HSV-2 strain 186, Vero cells, 7 days at 37° C.; read-out: ID50 HSV-2 (concentration of compound causing 50% inhibition of plaque formation)
Experimental: (§1) Anti-herpes activity was measured in a plaque-reduction assay (Lopez, C. et al., J. Antimicrob. Agents Chemother., 17, 803 (1980). Confluent monolayers of Vero cells in 6-well plates were infected with 100 plaque forming units of either HSV-1 (strain KOS) or HSV-2 (strain 186). The infected monolayers were incubated at 37° C. for 1 hour and then overlaid with maintenance medium containing 1% agarose and various concentrations of test compounds. The monolayers were incubated for a further 7 days at 37° C., after which the cells were fixed and stained, the plaques were counted, and the concentration of compound causing 50% inhibition of plaque formation was calculated.

HSV-1 (strain KOS) = experiment: Anti-herpes activity, plaque-reduction assay in Vero cells, HSV-1 (strain KOS); type: cell-based; conditions: Human alphaherpesvirus 1, 168 h, 7 days at 37° C., read-out: ID50 HSV-1 (concentration of compound causing 50% inhibition of plaque formation)
Experimental: as §1

Row | SMILES | IC50 (HSV-2 (strain 186)) | IC50 (HSV-1 (strain KOS))
1 | Nc1nc2c(ncn2COCCO)c(=O)[nH]1 [Acyclovir, reference compound] | 0.4 µg/mL (≈ 1.78 µM) | 0.57 µg/mL (≈ 2.53 µM)
2 | Nc1nc2c(ncn2C[C@]2(CO)C[C@H]2CO)c(=O)[nH]1 [Example 20, (-)-9-[1'S,2'R-bis(hydroxymethyl)cyclopropan-1'yl]methylguanine] | 0.24 µg/mL (≈ 0.905 µM) | 0.023 µg/mL (≈ 0.0867 µM)
3 | Nc1nc2c(ncn2C[C@]2(CO)C[C@@H]2CO)c(=O)[nH]1 (relative stereo) | – | 10.4 µg/mL (≈ 39.2 µM)
4 | Nc1ncnc2c1ncn2CC1(CO)CC1CO (stereo not shown) | – | 47 µg/mL (≈ 189 µM)
5 | Nc1ccn(CC2(CO)CC2CO)c(=O)n1 (stereo not shown) | – | 120 µg/mL (≈ 533 µM)
6 | Nc1nc(Cl)c2ncn(CC3(CO)CC3CO)c2n1 (stereo not shown) | – | 34 µg/mL (≈ 120 µM)
7 | Nc1nc2c(ncn2C[C@]2(CO)C[C@H]2CO)c(=O)[nH]1 (relative stereo) | 0.42 µg/mL (≈ 1.58 µM) | 0.046 µg/mL (≈ 0.173 µM)
